Measured values as given in ChEMBL document CHEMBL1201862, “PubChem BioAssay data set” (2004).
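Assay format: 96-well plates, 48-hour exposure. Here, GI50 denotes the concentration required for 50% inhibition of growth.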 Activity calls are given as the source filed them. Cut-off read from the data, not from the text of the source: active = GI50 up to about 1.1 µM and inactive = higher.

Key:
Assay in all cases: NCI tumour cell line growth inhibition, 48 h
HOP-92 = tested on: HOP-92
K562 = tested on: K562
SW-620 = tested on: SW-620
PC-3 = tested on: PC-3
SF-268 = tested on: SF-268
COLO 205 = tested on: COLO 205
SNB-75 = tested on: SNB-75
MCF7 = tested on: MCF7
NCI/ADR-RES = tested on: NCI/ADR-RES
A549 = tested on: A549
CAKI-1 = tested on: CAKI-1
DU-145 = tested on: DU-145
786-0 = tested on: 786-0
HCT-15 = tested on: HCT-15
HCC 2998 = tested on: HCC 2998
HL-60 = tested on: HL-60
SNB-19 = tested on: SNB-19
NCI-H460 = tested on: NCI-H460
SR = tested on: SR

Structure (SMILES)	GI50 (HOP-92)	GI50 (K562)	GI50 (SW-620)	GI50 (PC-3)	GI50 (SF-268)	GI50 (COLO 205)	GI50 (SNB-75)	GI50 (MCF7)	GI50 (NCI/ADR-RES)	GI50 (A549)	GI50 (CAKI-1)	GI50 (DU-145)	GI50 (786-0)	GI50 (HCT-15) [µM]	GI50 (HCC 2998)	GI50 (HL-60)	GI50 (SNB-19)	GI50 (NCI-H460)	GI50 (SR)
COc1cccc2c1OC1c3ccccc3OCC1(O)C2 (stereo unspecified)	> 100 µM (inactive)	> 100 µM (inactive)	> 100 µM (inactive)	> 100 µM (inactive)	> 100 µM (inactive)	> 100 µM (inactive)	> 100 µM (inactive)	> 100 µM (inactive)	> 100 µM (inactive)	> 100 µM (inactive)	> 100 µM (inactive)	> 100 µM (inactive)	> 100 µM (inactive)	> 100	> 100 µM (inactive)				
CCOC(=O)C(Cc1ccc(OC(=O)c2ccc(OC)cc2OC)cc1)NC(=O)C(F)(F)F (stereo unspecified)	23.1 µM (inactive)	29.6 µM (inactive)	> 100 µM (inactive)	21.8 µM (inactive)	31.1 µM (inactive)	18.7 µM (inactive)	16.4 µM (inactive)	19.7 µM (inactive)	32 µM (inactive)	36.2 µM (inactive)	29 µM (inactive)	19.8 µM (inactive)	31.9 µM (inactive)	21.1	16.5 µM (inactive)	21.9 µM (inactive)	33.6 µM (inactive)	34.8 µM (inactive)	
COC(=O)NC(Nc1ccccn1)(C(F)(F)F)C(F)(F)F	> 100 µM (inactive)	> 100 µM (inactive)	> 100 µM (inactive)		> 100 µM (inactive)		> 100 µM (inactive)	> 100 µM (inactive)	> 100 µM (inactive)	> 100 µM (inactive)	> 100 µM (inactive)	> 100 µM (inactive)	> 100 µM (inactive)	> 100	> 100 µM (inactive)	> 100 µM (inactive)	> 100 µM (inactive)	> 100 µM (inactive)	> 100 µM (inactive)
CC(=O)/C(=C/NC(=S)N/N=C1\C(=O)Nc2ccccc21)C(=O)Nc1ccccc1C	> 100 µM (inactive)		> 100 µM (inactive)		> 100 µM (inactive)	> 100 µM (inactive)	52.4 µM (inactive)		> 100 µM (inactive)	> 100 µM (inactive)	47.4 µM (inactive)	47.1 µM (inactive)	82.2 µM (inactive)	> 100	> 100 µM (inactive)	41 µM (inactive)	> 100 µM (inactive)	> 100 µM (inactive)	
CCOc1ncn(-c2ccc(NC(=S)Nc3cnccn3)cc2)n1	> 10 µM (inactive)	> 10 µM (inactive)			> 10 µM (inactive)		> 10 µM (inactive)	> 10 µM (inactive)	> 10 µM (inactive)	> 10 µM (inactive)		> 10 µM (inactive)	> 10 µM (inactive)	> 10		> 10 µM (inactive)	> 10 µM (inactive)	> 10 µM (inactive)	> 10 µM (inactive)
CC(=O)c1ccc(NCc2cc(O)ccc2O)cc1	17.9 µM (inactive)	32.2 µM (inactive)	36.7 µM (inactive)	15.2 µM (inactive)		11.8 µM (inactive)	13.7 µM (inactive)	21.7 µM (inactive)	36.5 µM (inactive)		17.9 µM (inactive)	23 µM (inactive)	13.3 µM (inactive)	24.9		3.53 µM (inactive)	38.8 µM (inactive)	23.1 µM (inactive)	
COC(=O)CC[N+]1=CCC(c2ccccc2)(c2ccccc2)O1	> 100 µM (inactive)	> 100 µM (inactive)	> 100 µM (inactive)	> 100 µM (inactive)	> 100 µM (inactive)	> 100 µM (inactive)		> 100 µM (inactive)		> 100 µM (inactive)	> 100 µM (inactive)	> 100 µM (inactive)	> 100 µM (inactive)	> 100	> 100 µM (inactive)		> 100 µM (inactive)	> 100 µM (inactive)	
CC1=NN(c2ccc(S(=O)(=O)O)cc2)C2(C1)SCC(=O)N2c1nc2ccccc2s1 (stereo unspecified)	> 100 µM (inactive)	> 100 µM (inactive)	> 100 µM (inactive)	> 100 µM (inactive)	> 100 µM (inactive)	> 100 µM (inactive)	> 100 µM (inactive)	> 100 µM (inactive)	> 100 µM (inactive)	> 100 µM (inactive)	> 100 µM (inactive)	> 100 µM (inactive)	> 100 µM (inactive)	> 100	> 100 µM (inactive)	0.195 µM (active)	> 100 µM (inactive)	> 100 µM (inactive)	
C(=N\Nc1nnc2c(n1)[nH]c1ccccc12)/c1cccnc1	> 100 µM (inactive)	> 100 µM (inactive)	> 100 µM (inactive)	> 100 µM (inactive)	> 100 µM (inactive)	> 100 µM (inactive)	> 100 µM (inactive)	> 100 µM (inactive)	> 100 µM (inactive)	> 100 µM (inactive)	> 100 µM (inactive)	> 100 µM (inactive)	> 100 µM (inactive)	> 100	> 100 µM (inactive)	> 100 µM (inactive)	> 100 µM (inactive)	> 100 µM (inactive)	
CN1B(c2ccccc2)N(C)C(=O)N(C)C1=O	> 100 µM (inactive)	> 100 µM (inactive)	> 100 µM (inactive)	> 100 µM (inactive)	> 100 µM (inactive)	> 100 µM (inactive)	18.4 µM (inactive)	> 100 µM (inactive)	> 100 µM (inactive)	> 100 µM (inactive)	52.2 µM (inactive)	> 100 µM (inactive)	> 100 µM (inactive)	> 100		> 100 µM (inactive)	> 100 µM (inactive)	> 100 µM (inactive)	
Cc1ccc(OCC2OC(n3cnc4nc(Nc5ccc(Cl)c(Cl)c5)nc(Cl)c43)CC2Oc2ccc(C)cc2)cc1 (stereo unspecified)		> 100 µM (inactive)	> 100 µM (inactive)	> 100 µM (inactive)	> 100 µM (inactive)	> 100 µM (inactive)	> 100 µM (inactive)	> 100 µM (inactive)	> 100 µM (inactive)	> 100 µM (inactive)	> 100 µM (inactive)	> 100 µM (inactive)	> 100 µM (inactive)	> 100	> 100 µM (inactive)		> 100 µM (inactive)	27.2 µM (inactive)	
N/N=C(\C(=O)Nc1ccc(Cl)cc1Cl)C(c1cnc2ccccc2n1)[N+](=O)[O-] (stereo unspecified)	> 100 µM (inactive)	> 100 µM (inactive)	> 100 µM (inactive)	> 100 µM (inactive)	> 100 µM (inactive)		> 100 µM (inactive)	> 100 µM (inactive)	> 100 µM (inactive)	> 100 µM (inactive)	> 100 µM (inactive)		> 100 µM (inactive)	> 100	> 100 µM (inactive)	> 100 µM (inactive)		> 100 µM (inactive)	> 10 µM (inactive)
COC(=O)CCCc1c(-c2[nH]c3ccccc3c2CCCC(=O)OC)[nH]c2ccccc12	> 100 µM (inactive)	> 100 µM (inactive)	> 100 µM (inactive)	> 100 µM (inactive)	> 100 µM (inactive)	> 100 µM (inactive)	13.6 µM (inactive)		> 100 µM (inactive)	> 100 µM (inactive)	> 100 µM (inactive)	> 100 µM (inactive)	> 100 µM (inactive)	> 100		> 100 µM (inactive)	> 100 µM (inactive)	> 100 µM (inactive)	
COc1ccc(N2C(=O)C3c4[nH]c5ccc(OC)cc5c4C4CCC(C(C)C)CC4C3C2=O)cc1 (stereo unspecified)	> 54.2 µM (inactive)	18.3 µM (inactive)	> 75.3 µM (inactive)	> 100 µM (inactive)	19.5 µM (inactive)	> 100 µM (inactive)	17.7 µM (inactive)	> 100 µM (inactive)	> 100 µM (inactive)	> 72.4 µM (inactive)	> 100 µM (inactive)	> 100 µM (inactive)	14.9 µM (inactive)	> 100	33.7 µM (inactive)	55.2 µM (inactive)	35.6 µM (inactive)	27.5 µM (inactive)	
CCOC(=O)/C=C1\Nc2ccccc2C(c2ccccc2)=NC1OC(C)=O (stereo unspecified)	32.1 µM (inactive)	97.1 µM (inactive)	> 100 µM (inactive)		> 100 µM (inactive)	> 100 µM (inactive)	31.9 µM (inactive)			> 100 µM (inactive)	94.6 µM (inactive)		> 100 µM (inactive)	> 100	> 100 µM (inactive)	81.5 µM (inactive)		> 100 µM (inactive)	99.1 µM (inactive)
O/N=N\c1nc(-c2cccnc2)nc2ccccc12		> 100 µM (inactive)	> 100 µM (inactive)	> 100 µM (inactive)	> 100 µM (inactive)	75.5 µM (inactive)	33.3 µM (inactive)	> 100 µM (inactive)	> 100 µM (inactive)	> 100 µM (inactive)	> 100 µM (inactive)	> 100 µM (inactive)	> 100 µM (inactive)	96.8	87.9 µM (inactive)	> 100 µM (inactive)	> 100 µM (inactive)	> 100 µM (inactive)	
CC(C)C(C/C=C1/CC(CO)(COC(=O)c2ccccc2)OC1=O)C(C)C (stereo unspecified)	17.5 µM (inactive)	9.04 µM (inactive)	16.4 µM (inactive)	13.6 µM (inactive)	16.8 µM (inactive)	3.63 µM (inactive)	7.5 µM (inactive)	19.6 µM (inactive)	19.2 µM (inactive)	12.4 µM (inactive)	14.6 µM (inactive)		11 µM (inactive)	20	18.8 µM (inactive)		16.7 µM (inactive)	17 µM (inactive)	30.6 µM (inactive)
